Test results from US20250041252A1, “POWDERS FOR INHALATION AND PRODUCTION PROCESS THEREOF” (UNIVERSITA' DEGLI STUDI DI PARMA, priority 2021, published 2025).

Settings: about 8 mg of LANE, end of test, filter wash
Source text: The apparatus is consisting of an upper part, the donor chamber, and a lower part, the receiving chamber, held together by means of a metal clamp, but separated by a glass microfiber filter, used as a diffusion membrane, and placed horizontally in contact with the dissolution medium. The receiving chamber contains a magnetic stirrer.
The dissolution medium used for the analysis is phosphate buffered saline (PBS), prepared weighing 8 g of NaCl, 0.2 g of KCl, 1.44 g of Na2HPO4, and 0.12 g of KH2PO4 dissolved in 1 L of distilled water, with a final pH of 7.4. During the analysis, RespiCell™ was thermostated (Lauda eco silver E4, DE) at 37±0.5° C.
The receiving chamber was filled with PBS and sampled at pre-established time intervals through the side arm of the cell. Before the analysis 1 mL of the dissolution medium was applied on the filter, to get it completely wet.
To assess the not dissolved or trapped in the filter drug amount, the not dissolved residual powder was recovered washing the filter with 5 mL of a methanol:water 75:25 v/v mixture, at the end of the experiment. The drug amount in the samples was quantified by HPLC analysis.

For `CCN(CC)CC(=O)Nc1c(C)cccc1C` [Lidocaine powder raw material, lidocaine], the “Lidocaine retained on and inside the filter” value was 0.1 ± 0.0 mg.
